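How tested: cells in 96-well plates exposed to compound for 48 hours at five concentrations. The concentration for full growth arrest is given as TGI.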
What was measured:
Test in all cases: NCI anticancer screen, dose series, 48 h
786-0 renal = system: 786-0 renal
A549 NSCLC = system: A549 NSCLC
ACHN renal = system: ACHN renal
BT-549 breast = system: BT-549 breast
CAKI-1 renal = system: CAKI-1 renal
CCRF-CEM leukemia = system: CCRF-CEM leukemia
COLO 205 colon = system: COLO 205 colon
DU-145 prostate = system: DU-145 prostate
EKVX NSCLC = system: EKVX NSCLC
HCT-116 colon = system: HCT-116 colon
HCT-15 colon = system: HCT-15 colon
HL-60(TB) leukemia = system: HL-60(TB) leukemia
HOP-62 NSCLC = system: HOP-62 NSCLC
HOP-92 NSCLC = system: HOP-92 NSCLC
HS 578T breast = system: HS 578T breast
HT29 colon = system: HT29 colon
IGROV1 ovarian = system: IGROV1 ovarian
K-562 leukemia = system: K-562 leukemia
KM12 colon = system: KM12 colon
LOX IMVI melanoma = system: LOX IMVI melanoma
M14 melanoma = system: M14 melanoma
MALME-3M melanoma = system: MALME-3M melanoma
MDA-MB-231 breast = system: MDA-MB-231 breast
MDA-MB-435 = system: MDA-MB-435
MDA-N = system: MDA-N
MOLT-4 leukemia = system: MOLT-4 leukemia
NCI-H226 lung = system: NCI-H226 lung
NCI-H23 lung = system: NCI-H23 lung
NCI-H460 lung = system: NCI-H460 lung
NCI-H522 lung = system: NCI-H522 lung
NCI/ADR-RES ovarian = system: NCI/ADR-RES ovarian
OVCAR-3 ovarian = system: OVCAR-3 ovarian
OVCAR-4 ovarian = system: OVCAR-4 ovarian
OVCAR-5 ovarian = system: OVCAR-5 ovarian
OVCAR-8 ovarian = system: OVCAR-8 ovarian
PC-3 prostate = system: PC-3 prostate
RPMI-8226 leukemia = system: RPMI-8226 leukemia
RXF 393 renal = system: RXF 393 renal
SF-268 CNS = system: SF-268 CNS
SF-295 CNS = system: SF-295 CNS
SF-539 CNS = system: SF-539 CNS
SK-MEL-2 melanoma = system: SK-MEL-2 melanoma
SK-MEL-28 melanoma = system: SK-MEL-28 melanoma
SK-MEL-5 melanoma = system: SK-MEL-5 melanoma
SK-OV-3 ovarian = system: SK-OV-3 ovarian
SN12C renal = system: SN12C renal
SNB-19 CNS = system: SNB-19 CNS
SNB-75 CNS = system: SNB-75 CNS
SR leukemia = system: SR leukemia
SW-620 colon = system: SW-620 colon
T-47D breast = system: T-47D breast
TK-10 renal = system: TK-10 renal
U251 CNS = system: U251 CNS
UACC-257 melanoma = system: UACC-257 melanoma
UO-31 renal = system: UO-31 renal
A498 renal = system: A498 renal
HCC-2998 colon = system: HCC-2998 colon
MCF7 breast = system: MCF7 breast
UACC-62 melanoma = system: UACC-62 melanoma

Measured: TGI

Fc1cc(-c2cc(-c3ccccc3)n[nH]2)c(Cl)cc1Cl
57.6 µM: MOLT-4 leukemia
60.7 µM: SF-539 CNS
23.2 µM: K-562 leukemia
not listed: A498 renal | HCC-2998 colon | MCF7 breast | UACC-62 melanoma
> 100 µM: all other assays above

Cc1ccc2nc3n(c2c1)C(c1c(F)cccc1F)SC3 (centres undefined)
not listed: EKVX NSCLC | MDA-MB-435 | OVCAR-8 ovarian
> 100 µM: all other assays above

COc1ccc2c(c1)O[C@@H]1[C@@H](OC3OC(CO)C(O)C(O)C3O)Oc3cc(OC)c(OC)cc3[C@]1(O)C2=O (some centres undefined)
not listed: MCF7 breast
> 100 µM: all other assays above

From PubChem BioAssay (NCI)
